Experimental data: patent publication US8835428B2, “Diacylglycerol acyltransferase inhibitors” (Piramal Enterprises Limited, priority 2008, dated 2014)

Target: T1, hDGAT1 (Homo sapiens, UniProt O75907)
T1 construct: host or cells: Sf9 insect cells (baculovirus); microsomal preparation
T1 sequence (O75907 1-488): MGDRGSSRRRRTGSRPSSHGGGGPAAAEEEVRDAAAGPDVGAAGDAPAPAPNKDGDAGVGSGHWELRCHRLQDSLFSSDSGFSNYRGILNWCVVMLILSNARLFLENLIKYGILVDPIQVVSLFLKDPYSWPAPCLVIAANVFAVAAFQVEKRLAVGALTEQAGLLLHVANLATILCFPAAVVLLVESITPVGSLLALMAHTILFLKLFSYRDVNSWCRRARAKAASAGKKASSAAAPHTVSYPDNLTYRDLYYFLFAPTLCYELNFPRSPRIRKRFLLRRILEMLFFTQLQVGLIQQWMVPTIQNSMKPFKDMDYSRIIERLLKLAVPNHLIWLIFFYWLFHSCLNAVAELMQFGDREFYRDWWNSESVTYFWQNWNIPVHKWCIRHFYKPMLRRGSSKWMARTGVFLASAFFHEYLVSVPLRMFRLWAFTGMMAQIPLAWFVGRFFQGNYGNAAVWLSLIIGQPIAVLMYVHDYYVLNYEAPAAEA
Test: In-vitro DGAT1 assay (hDGAT1 microsomes from Sf9 cells, 14C oleoyl CoA, triglyceride formation)
Assay type: biochemical
Settings: At 10 μM
Protocol: In-vitro Protocol for DGAT1 Assay
Sf9 Culture and Treatment
Sf9 cells were grown in T25 flasks containing Graces's Insect media with 10% FBS with antibiotic (100 units/mL penicillin, 100 μg/mL streptomycin sulphate, 0.25 μg/mL Amptotericin B as Fungizone) grown in a 27° C. incubator:
hDGAT1ORF expression clone (RZPDo839C09146 in pDEST vector) was obtained from RZPD, Germany. hDGAT1 bacmid DNA was obtained by transformation of the hDGAT expression clone into DH10Bac E. coli competent cells. Approximately 1 μg of hDGAT1 bacmid DNA was infected into Sf9 cells with Cellfectin (Invitrogen) reagent. Following infection, Sf9 cells were incubated at 27° C. for 30 minutes. Five hours after infection, the media was replaced with growth media containing antibiotic (100 units/mL penicillin, 100 μg/mL streptomycin sulphate, 0.25 μg/mL Amptotericin B as Fungizone) and incubated at 27° C. for 72 hours. The supernatant containing the virus was centrifuged at 1500×g for 5 minutes, passed through 0.22 μm filter, and subsequently stored at 4° C. The virus was further amplified three more times by re-infection of Sf9 cells and the viral titer was determined by plaque assay.
Preparation of DGAT1 Microsomes from Sf9 Cells
Sf9 cells were seeded in spinner flasks on day 0 at a cell density of 1×10^6 and infected on day 1 with hDGAT1 baculovirus at a multiplicity of infection (MOI) of 5 and a cell density of 2×10^6. On day 3 (or 66-72 hours), cells were harvested and centrifuged at 2500×g for 10 minutes. Pellet was resuspended in lysis buffer (100 mM sucrose, 50 mM KCl, 40 mM KH2PO4, 30 mM EDTA, pH 7.2) and passed through 21-gauge needle approximately 10 times. The mixture was centrifuged at 12,000 rpm in a Sigma 12158-H rotor at 4° C. for 30 minutes. The supernatant was subjected to centrifugation at 35,000 rpm in a Beckman Ti-45 rotor at 4° C. for 1 hour. The resultant pellet containing the microsomes were resuspended overnight in 1 mL of lysis buffer and total protein concentration was estimated using Bradford Reagent. Microsomes were aliquoted and stored at −20° C.
Measurement of DGAT1 Activity
Frozen aliquots of hDGAT1 containing microsomes were thawed (5-10 mg/mL total protein) on ice and diluted to a working stock of 1 mg/mL with DGAT Assay Buffer (DAB). The DGAT reaction assay was performed by following the procedure described in U.S. Pat. No. 6,607,893 with some modifications that are described below.
Preparation of DGAT1 substrate mixture: 1 mL stock solution of DGAT1 substrate mixture contains (i) 5.6 μL of ^14C oleoyl CoA (16.8 nCi) and 35 μL 1,2-dioleoyl-sn-glycerol (409.5 μM) or (ii) 5.6 μL of ^14C oleoyl CoA (16.8 nCi) and 105 μL 1,2-dioleoyl-sn-glycerol (1228.5 μM) or (iii) 5.6 μL of ^14C oleoyl CoA (16.8 nCi) and 140 μL 1,2-dioleoyl-sn-glycerol (1638 μM).
1,2-sn-dioleoylglycerol substrate concentration in the 1 mL stock solution of DGAT1 substrate mixture was varied depending on the microsome concentration used in the assay reaction. 1,2-dioleoyl-sn-glycerol stock (19.5 mM) was prepared by dissolving 25 mg of 1,2-dioleoyl-sn-glycerol (Sigma, US) in 2060 μL of acetone. The assay was performed in duplicates in a reaction volume of 100 μL. The reaction volume consisted of: • (i) 27.5 μL of DGAT assay buffer (0.25M Sucrose, 1 mM EDTA (pH 8.0), 150 mM Tris-HCl, pH 7.4, 1.25 mg/mL, fatty acid free BSA), • (ii) 10 μL of compound, of present invention or standard (dissolved in DMSO and diluted to 10× with DAB and screened at 10 μM, 5 μM and 1 μM), • (iii) 60 μL DGAT1 substrate mixture taken from a 1 mL stock (16.8 nCi of ^14C oleoyl CoA and 409.5 μM or 1228.5 μM or 1638 μM of 1,2-dioleyl-sn-glycerol), • (iv) 2.5-10 μL of 1 mg/mL of microsomes (the amount of assay buffer was varied depending upon the concentration of microsome to make up the volume to 100 μL). Procedure:
The reaction was started by the addition of 2.5-10 μL of 1 mg/mL of microsomes (iv) to a mixture of (i), (ii) and (iii), vortexed and incubated at 37° C. for 10 minutes. […]

Row | SMILES | inhibition at 10 µM
1 | CCOC(=O)c1cc(-c2cccc(Nc3nc4ccc(F)cc4s3)c2)no1 [Example 20, 3-[3-(6-Fluoro-benzothiazol-2-ylamino)-phenyl]-isoxazole-5-carboxylic acid ethyl ester] | 0 to 50%
2 | O=C(O)c1cc(-c2cccc(Nc3nc4ccc(F)cc4s3)c2)no1 [Example 21, 3-[3-(6-Fluoro-benzothiazol-2-ylamino)-phenyl]-isoxazole-5-carboxylic acid] | 0 to 50%
3 | COC(=O)[C@@H](NC(=O)c1cc(-c2cccc(Nc3nc4ccc(F)cc4s3)c2)no1)C(C)C [Example 22, (S)-2-({3-[3-(6-Fluoro-benzothiazol-2-ylamino)-phenyl]-isoxazole-5-carbonyl}-amino)-3-methyl-butyric acid methyl ester] | 0 to 50%
4 | CC(C)[C@H](NC(=O)c1cc(-c2cccc(Nc3nc4ccc(F)cc4s3)c2)no1)C(=O)O [Example 23, (S)-2-({3-[3-(6-Fluoro-benzothiazol-2-ylamino)-phenyl]-isoxazole-5-carbonyl}-amino)-3-methyl-butyric acid] | 0 to 50%
5 | COC(=O)[C@@H](NC(=S)c1cc(-c2cccc(Nc3nc4ccc(F)cc4s3)c2)no1)C(C)C [Example 24, (S)-2-({3-[3-(6-Fluoro-benzothiazol-2-ylamino)-phenyl]-isoxazole-5-carbothioyl}-amino)-3-methyl-butyric acid methyl ester] | 0 to 50%
6 | CC(C)[C@H](NC(=S)c1cc(-c2cccc(Nc3nc4ccc(F)cc4s3)c2)no1)C(=O)O [Example 25, (S)-2-({3-[3-(6-Fluoro-benzothiazol-2-ylamino)-phenyl]-isoxazole-5-carbothioyl}-amino)-3-methyl-butyric acid] | 0 to 50%

Other lines, results leading:

Row | inhibition at 10 µM | SMILES
7 | 0 to 50% | COC(=O)[C@@H](NC(=NO)c1cc(-c2cccc(Nc3nc4ccc(F)cc4s3)c2)no1)C(C)C [Example 26, (S)-2-({3-[3-(6-Fluoro-benzothiazol-2-ylamino)-phenyl]-N-hydroxy-isoxazole-5-carboximidoyl}-amino)-3-methyl-butyric acid methyl ester]
8 | 0 to 50% | CC(C)[C@H](NC(=NO)c1cc(-c2cccc(Nc3nc4ccc(F)cc4s3)c2)no1)C(=O)O [Example 27, (S)-2-({3-[3-(6-Fluoro-benzothiazol-2-ylamino)-phenyl]-N-hydroxy-isoxazole-5-carboximidoyl}-amino)-3-methyl-butyric acid]
9 | 0 to 50% | COC[C@H](NC(=O)c1cc(-c2cccc(Nc3nc4ccc(F)cc4s3)c2)no1)C(=O)OC [Example 28, (S)-2-({3-[3-(6-Fluoro-benzothiazol-2-ylamino)-phenyl]-isoxazole-5-carbonyl}-amino)-3-methoxy-propionic acid methyl ester]
10 | 0 to 50% | COC[C@H](NC(=O)c1cc(-c2cccc(Nc3nc4ccc(F)cc4s3)c2)no1)C(=O)O [Example 29, (S)-2-({3-[3-(6-Fluoro-benzothiazol-2-ylamino)-phenyl]-isoxazole-5-carbonyl}-amino)-3-methoxy-propionic acid]
11 | 0 to 50% | COC[C@H](NC(=S)c1cc(-c2cccc(Nc3nc4ccc(F)cc4s3)c2)no1)C(=O)OC [Example 30, (S)-2-({3-[3-(6-Fluoro-benzothiazol-2-ylamino)-phenyl]-isoxazole-5-carbothioyl}-amino)-3-methoxy-propionic acid methyl ester]
12 | 0 to 50% | COC[C@H](NC(=S)c1cc(-c2cccc(Nc3nc4ccc(F)cc4s3)c2)no1)C(=O)O [Example 31, (S)-2-({3-[3-(6-Fluoro-benzothiazol-2-ylamino)-phenyl]-isoxazole-5-carbothioyl}-amino)-3-methoxy-propionic acid]
13 | 0 to 50% | COC[C@H](NC(=NO)c1cc(-c2cccc(Nc3nc4ccc(F)cc4s3)c2)no1)C(=O)OC [Example 32, (S)-2-({3-[3-(6-Fluoro-benzothiazol-2-ylamino)-phenyl]-N-hydroxy-isoxazole-5-carboximidoyl}-amino)-3-methoxy-propionic acid methyl ester]
